Literature values, collected in patent US6972176B2, “KVLQT1—a long QT syndrome gene” (University of Utah Research Foundation, priority 1995, dated 2005).

Target: T1, IKs in isolated myocytes (Cavia porcellus, UniProt O70344)
T1 construct: host or cells: isolated cardiac myocytes
T1 sequence (O70344 1-671): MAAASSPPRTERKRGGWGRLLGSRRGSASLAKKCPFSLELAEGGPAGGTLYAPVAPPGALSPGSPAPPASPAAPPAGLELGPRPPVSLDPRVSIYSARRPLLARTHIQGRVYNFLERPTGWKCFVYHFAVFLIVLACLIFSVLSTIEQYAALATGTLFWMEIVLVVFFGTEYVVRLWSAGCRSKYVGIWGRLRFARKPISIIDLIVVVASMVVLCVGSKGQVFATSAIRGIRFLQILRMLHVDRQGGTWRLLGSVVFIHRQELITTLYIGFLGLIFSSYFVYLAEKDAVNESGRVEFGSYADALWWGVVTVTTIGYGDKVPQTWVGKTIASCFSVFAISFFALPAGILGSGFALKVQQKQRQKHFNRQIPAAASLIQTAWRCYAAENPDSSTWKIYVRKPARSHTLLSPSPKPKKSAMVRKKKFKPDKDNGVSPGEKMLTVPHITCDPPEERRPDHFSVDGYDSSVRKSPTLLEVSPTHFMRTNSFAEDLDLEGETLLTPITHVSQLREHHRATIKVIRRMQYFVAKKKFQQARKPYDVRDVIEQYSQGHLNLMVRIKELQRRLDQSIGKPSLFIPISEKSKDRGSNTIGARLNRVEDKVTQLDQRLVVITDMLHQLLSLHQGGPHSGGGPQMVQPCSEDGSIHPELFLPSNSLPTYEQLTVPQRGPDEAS
Conditions: Balser et al, 1991

SMILES: C=C[C@H]1C[N@@]2CC[C@H]1C[C@@H]2[C@@H](O)c1ccnc2ccc(OC)cc12 [Quinidine]
- block of IKs: 40-50%
